Values belong to the compound of their own block, whether it stands above or below them.
How the values were obtained:
tLRAT [1] = biological target: T1, tLRAT (Homo sapiens, UniProt O95237); test: Isomeric preference of the mRPE65/tLRAT mediated esterification of retinols; type: biochemical; conditions: compared to vitamin A; 0.02 μM mRPE65, 5 μM tLRAT
T1 construct: This form of LRAT has the two N and C-terminal transmembrane domains of LRAT truncated; made in house
T1 sequence (O95237 31-196 limits assumed): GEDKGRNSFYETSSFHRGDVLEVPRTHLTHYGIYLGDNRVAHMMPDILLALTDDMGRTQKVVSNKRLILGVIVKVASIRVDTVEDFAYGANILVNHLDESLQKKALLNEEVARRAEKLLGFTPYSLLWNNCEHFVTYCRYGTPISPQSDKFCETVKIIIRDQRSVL
Method: Isomeric preference of the mRPE65/tLRAT mediated esterification of retinols: The effect of mRPE65 on the processing of 11-cis- and all-trans-retinols was determined by monitoring the formation of tLRAT catalyzed retinyl esters from added all-trans-retinol [11,12-^3H2], 11-cis-retinol [15-^3H] and mRPE65. The reaction mixture (volume 0.1 mL) contains 100 mM Tris (pH 8.4), 5 μM of tLRAT 0.3% CHAPS, 1 mM dithiothreitol and 0.2 μM of all-trans-retinol [11,12-^3H2] or 11-cis-retinol [15-^3H] and mRPE65 ([…] 200 μM/0.4% DPPC/BSA was incubated for 10 min at room temperature. After 10 min the reaction was quenched with 500 μL methanol, 100 μL of water and 500 μL of hexane. The amount of retinyl palmitate formed, as determined by normal phase-HPLC, was used as a measure of activity. Each experiment was done in triplicate, and the data points used are an average of these three points. The standard error was presented as error bars.
11-cis-retinol, the direct product of IMH action, is also esterified (FIG. 12A). […] (2) all-trans-retinol (2 μM) and mRPE65 (0.02 μM). (3) 11-cis-retinol (2 μM) and DPPC/BSA (250 μM/0.4%). (4) all-trans-retinol (2 μM) and DPPC/BSA (250 μM/0.4%). All reaction mixtures contain 100 mM Tris pH 8.4, 1 mM dithiothreitol, 1 mM EDTA and 5 μM tLRAT.

[2] = system: mRPE65 / IMH activity in RPE membranes; test: Effect of 11-cis-retinol mediated depalmitoylation of mRPE65 on generation of 11-cis-retinol in RPE membranes; type: biochemical, bovine; conditions: RPE membranes pretreated with 10 μM, then UV and vitamin A
Method: Effect of 11-cis-retinol mediated depalmitoylation of mRPE65 on the generation of 11-cis-retinol: To 1 mL of buffered suspension of RPE membranes (100 mM Tris pH 8.0, 80 μg of protein) was added 10 μM of 11-cis-retinol and incubated at room temp. for 45 min. A control reaction mixture without 11-cis-retinol was also incubated at room temperature for 45 min. At the end of the 45 min incubation, the reaction mixtures were exposed to UV light (354 nm) for 10 min to destroy the 11-cis-retinoids. All-trains-retinol [11-12-^3H2] (0.1 μM) was then added to the reaction mixtures (100 mM Tris pH 8.0, 80 μg of RPE protein 5% BSA and 0.1 μM all-trans-retinol [11-12-^3H2], and incubated at 37° C. 100 μL aliquot of the reactions were quenched after 0, 5, 10, 15, 20, 30, 45, 60, 90, 120 and 150 min by the addition of 500 μL methanol after which 100 μL of H2O was added, and 500 μl hexane (containing butylated hydroxy toluene at 1 mg/mL) was added to effect extraction of the retinoids. The retinoids were analyzed as previously described (Winston and Rando 1998). The amount of 11-cis-retinol formed was used as a measurement of IMH activity. All experiments were performed in triplicate and the average values of these measurements were used for analysis. […]

tLRAT [3] = biological target: T1, tLRAT; conditions: comparison value; no observable turnover under the same conditions; read-out: KM as acyl donor in the LRAT reaction; cited from earlier work
RPE65 = biological target: T2, RPE65 (Bos taurus, UniProt Q28175); test: Competitive binding with 3H-all-trans-retinyl palmitate to RPE65 (buffer exchange); design: species or system bovine; conditions: 6 μM retinoic acid, 0.5 μM RPE65, 0.65 μM 3H-all-trans-retinyl palmitate
T2 construct: Frozen bovine eyecups devoid of retinas were purchased from W. L. Lawson Co; tissue W. L. Lawson Co; host or cells: bovine eyecups (retinal pigment epithelium)
Method: Competitive binding of retinoic acid (all-trans and 13-cis) and all-trans-retinyl palmitate to RPE65: Buffer exchange experiments were performed to investigate the abilities of the retinoic acids (all-trans and 13-cis) to displace all-trans-retinyl palmitate binding from RPE65. To RPE65 (0.5 μM) (PBS, 1% CHAPS, pH 7.4), was added 6 μM of retinoic acid (all-trans and 13-cis) and incubated at 4° C. for 30 min. A control sample of RPE65 was incubated minus retinoic acids at 4° C. for 30 min. At the end of this incubation, the samples were incubated for 30 min with ^3H-all-trans-retinyl palmitate (0.65 ∥M, 20.31. Ci/mmol). At the end of this incubation period the buffer (PBS-1% CHAPS) was exchanged 10^4 fold with a Centricon 30K MWCO filter. The sample retained and the buffer flow through were counted on a liquid scintillation counter, to measure the amount of ^3H-all-trans-retinyl palmitate retained.
Competitive binding of retinoic acid (all-trans and 13-cis) and all-trans-retinyl palmitate to RPE65: Buffer exchange experiments were performed to investigate the abilities of the retinoic acids (all-trans and 13-cis) to displace all-trans-retinyl palmitate binding from RPE65. […] The sample retained and the buffer flow through were counted on a liquid scintillation counter, to measure the amount of ^3H-all-trans-retinyl palmitate retained. […]

[4] = system: 11-cis-retinol biosynthesis (IMH activity) in retinal pigment epithelial membrane system; test: Effect on 11-cis-retinol biosynthesis (IMH activity) in RPE membranes; type: biochemical, bovine; conditions: membranes pre-incubated with vitamin A before inhibitor; 60 μM; data not shown
Method: A control reaction mixture without any inhibitor was also incubated at room temperature for 15 min. At the end of the min incubation, all-trans-retinol [11-12-^3H2] (0.2 μM) was added to the reaction mixtures (100 mM Tris pH 8.0, […] of RPE protein, 0.2% BSA 100 μM of DPPC, 1 mM of DTT and 0.2 μM all-trans-retinol [11-12-^3H2]) and incubated at room temperature for 30 min. At the end of this 30 minutes of incubation, an aliquot of the reactions were quenched to verify the equal addition of all-trans-retinol [11,12-^3H2] and the effect of these inhibitors on LRAT. After this the control reaction mixture was incubated with atRA (60 & 6 μM), 13cRA (60 & 6 μM) or 4-HPR (60 & 6 μM) for 15 min. Now all the reaction mixtures were incubated with 30 μM of apo-rCRALBP (100 mM Tris pH 8.0, 7.7 μg of RPE protein, 0.2% BSA 100 μM of DPPC, 1 mM of DTT 30 μM apo-rCRALBP and 0.2 μM all-trans-retinol [11-12-^3H2]) at 37° C. for 30 minutes. At the end of this incubation period the 200 μL reaction mixture was quenched by the addition of 750 μL ice cold methanol after which 100 μL of 1M sodium chloride solution was added, and 500 μl hexane (containing butylated hydroxy toluene at 1 mg/mL) was added to effect extraction of the retinoids. The retinoids were analyzed as previously described (27). The amount of 11-cis-retinol formed was used as a measurement of IMH activity. All experiments were performed in triplicate and the average values of these measurements were used for analysis.
A control reaction mixture without any inhibitor was also incubated at room temperature for 15 min. At the end of the min incubation, all-trans-retinol [11-12-^3H2] (0.2 μM) was added to the reaction mixtures (100 mM Tris pH 8.0, 76.7 μg of RPE protein, 0.2% BSA 100 μM of DPPC, 1 mM of DTT and 0.2 μM all-trans-retinol [11-12-^3H2]) and incubated at room temperature for 30 min. […] The retinoids were analyzed as previously described (27). […]

T2 sequence (Q28175 whole entry): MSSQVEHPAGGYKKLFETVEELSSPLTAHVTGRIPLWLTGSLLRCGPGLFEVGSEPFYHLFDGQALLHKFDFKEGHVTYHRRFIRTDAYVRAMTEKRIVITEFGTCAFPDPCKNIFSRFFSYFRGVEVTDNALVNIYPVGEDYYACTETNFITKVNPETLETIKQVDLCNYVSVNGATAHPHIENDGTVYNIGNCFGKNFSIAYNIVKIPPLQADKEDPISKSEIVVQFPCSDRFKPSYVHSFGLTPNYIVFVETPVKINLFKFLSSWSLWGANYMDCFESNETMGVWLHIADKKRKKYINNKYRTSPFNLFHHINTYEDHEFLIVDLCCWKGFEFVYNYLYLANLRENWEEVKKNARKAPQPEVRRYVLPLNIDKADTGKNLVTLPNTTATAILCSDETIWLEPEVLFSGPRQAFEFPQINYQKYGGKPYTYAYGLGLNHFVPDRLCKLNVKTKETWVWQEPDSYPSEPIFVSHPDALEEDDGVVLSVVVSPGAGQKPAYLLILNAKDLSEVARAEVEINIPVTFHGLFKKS

substrate preference in tLRAT/mRPE65 mediated esterification (palmitoylation) (tLRAT [1]): superior substrate
SMILES: CC1=C(/C=C/C(C)=C/C=C\C(C)=C\CO)C(C)(C)CCC1 [11-cis-retinol]
effect of pretreatment on 11-cis-retinol synthesis [2]: distinct lag period before product synthesis occurs

SMILES: CCCCCCCCCCCCCCCC(=O)OC[C@H](COP(=O)([O-])OCC[N+](C)(C)C)OC(=O)CCCCCCCCCCCCCCC [DPPC, dipalamitoyl phosphatidylcholine]
Km (tLRAT [3]): 1.4 µM

competition with 3H-all-trans-retinyl palmitate binding to RPE65 (RPE65): competes with the binding
SMILES: CC1=C(/C=C/C(C)=C/C=C/C(C)=C/C(=O)O)C(C)(C)CCC1 [all-trans-retinoic acid]
inhibition of 11-cis-retinol formation [4]: not susceptible to inhibition

Source: US20080176952A1, “Management of Ophthalmologic Disorders, Including Macular Degeneration” (priority 2004, published 2008)
